Measured values published in US9186344B2, “Glycogen or polysaccharide storage disease treatment method” (Baylor Research Institute, priority 2004, dated 2015).

Experiments:
[1] = tested on: Adult-Onset Glycogen Storage Disease II (Pompe's) patient; test: Plasma amino acids during initiation of anaplerotic therapy (C7 diet), Example 1 patient; assay type: in vivo, human; settings: for Plasma ASPARTATE: normal (0-10); for Plasma CITRULLINE: normal (11-51); for Plasma ARGININE: normal (20-122); for Plasma TRYPTOPHAN: normal (23-86); for Plasma TYROSINE: normal (30-100); for Plasma PHENYLALANINE: normal (35-83); for Plasma ORNITHINE: normal (36-118); for Plasma ISOLEUCINE: normal (39-119); for Plasma LEUCINE: normal (60-204); for Plasma VALINE: normal (108-295); for Plasma ALANINE: normal (162-572); for Plasma GLUTAMINE: normal (424-720); for Plasma Total Amino Acids: normal (1540-4415)
From the text: Clinical and Biochemical Course on Therapy. […] Esophageal dysmotility was documented. A percutaneous endoscopic gastrostomy (PEG) was placed on the sixth hospital day.
The diet was based on vivonex and ˜1500 Kcal was given by nasogastric tube, on admission. […] Total caloric intake was raised from ˜1500 to 1700 to 1900 per day with these dietary changes during […] 33 day admission.
The levels of Alanine and Glutamine were low compared to the adult normal ranges. While the levels of the branched-chain amino acids (BCAA=Leucine, Valine, & Isoleucine) were within the adult normal ranges. The reduced levels of Alanine and Glutamine have been observed often in this disease and has led to the high protein—low carbohydrate diet and/or alanine supplementation. […] Glutamine increased nearly 2-fold as did the branched chain amino acids (BCAAs). The levels of these amino acids remained in the normal range while receiving the C7 diet. However, the diet was interrupted on day 4 & 5 while awaiting placement of the PEG for gastrostomy feeding. The levels of each of these amino acids promptly fell to admission levels (Table 2: 65 & 84 hour samples). With resumption of the diet via gastrostomy, all levels returned to (or above) the normal ranges in 24 hours. These amino acid levels remained normal on this odd-carbon triglyceride diet therapy.

[2] = Blood acylcarnitine profile after triheptanoin via nasogastric tube; assay type: in vivo, horse
From the text: Acylcarnitine Profiles. Acylcarnitines and carnitine levels in dried blood spots (dbs), plasma and amniotic fluid by automated electrospray tandem mass spectrometry Acylcarnitines are extracted from blood spots, plasmas and amniotic fluid with methanol containing stable isotopically labeled internal standards. The extract is derivatized to form butyl esters. An automated sample introduction system delivers the samples to the electrospray tandem mass spectrometer (ESI-MS/MS) operating in the multiple channel analysis mode in which acylcarnitines are identified, profiled, and quantified with stable isotopically labeled internal standards. This test also provides quantification of free, sum of acylcarnitines, and total carnitine levels.
Horses: Eight healthy, fit 4 year old thoroughbred geldings may be used in a study. These horses are all sound and trained to the treadmill. The ability of horses to absorb and digest C7 oil was first determined.

[3] = tested on: polysaccharide storage myopathy (PSSM); test: Treatment of horses with polysaccharide storage myopathy with triheptanoin diet; assay type: in vivo, horse
Method: Treatment of Horses. […] The first was an 8 year old mare who was unable to walk or exercise without severe muscle pain, rhabdomyolysis, and “locking up.” The owners were approaching “putting the animal down” (killing it). […] A second horse was encountered at 4 months with proven polysaccharide storage myopathy (PSSM) that was not able to walk adequately or nurse from its mother. The owners were prepared to kill the animal but decided to try the triheptanoin diet first. […] A third horse, also an 8 year old mare, developed PSSM and “locked up.” She was no longer available to ride and could no longer jump.

[4] = thirteen hours after initiating the C7 diet

## CCCCCCC(=O)OCC(COC(=O)CCCCCC)OC(=O)CCCCCC [C7, triheptanoin]
[1]; 13 hrs, C7 = 1.0 gm/Kg
  Plasma ASPARTATE: 44 µM
  Plasma CITRULLINE: 1 µM
  Plasma ARGININE: 96 µM
  Plasma TRYPTOPHAN: 121 µM
  Plasma TYROSINE: 110 µM
  Plasma PHENYLALANINE: 101 µM
  Plasma ORNITHINE: 78 µM
  Plasma ISOLEUCINE: 81 uM/L
  Plasma LEUCINE: 154 uM/L
  Plasma VALINE: 333 uM/L
  Plasma ALANINE: 551 uM/L
  Plasma GLUTAMINE: 827 uM/L
  Plasma Total Amino Acids: 3673 µM
[1]; 41 hrs, C7 = 1.0 gm/Kg
  Plasma ASPARTATE: 112 µM
  Plasma CITRULLINE: 43 µM
  Plasma ARGININE: 93 µM
  Plasma TRYPTOPHAN: 43 µM
  Plasma TYROSINE: 62 µM
  Plasma PHENYLALANINE: 156 µM
  Plasma ORNITHINE: 163 µM
  Plasma ISOLEUCINE: 138 uM/L
  Plasma LEUCINE: 266 uM/L
  Plasma VALINE: 384 uM/L
  Plasma ALANINE: 450 uM/L
  Plasma GLUTAMINE: 424 uM/L
  Plasma Total Amino Acids: 4160 µM
[1]; 108 hrs, C7 = 1.5 gm/Kg
  Plasma ASPARTATE: 50 µM
  Plasma CITRULLINE: 35 µM
  Plasma ARGININE: 102 µM
  Plasma TRYPTOPHAN: 40 µM
  Plasma TYROSINE: 56 µM
  Plasma PHENYLALANINE: 90 µM
  Plasma ORNITHINE: 122 µM
  Plasma ISOLEUCINE: 144 uM/L
  Plasma LEUCINE: 238 uM/L
  Plasma VALINE: 304 uM/L
  Plasma ALANINE: 307 uM/L
  Plasma GLUTAMINE: 584 uM/L
  Plasma Total Amino Acids: 3568 µM
[1]; 132 hrs, C7 = 1.5 gm/Kg
  Plasma ASPARTATE: 42 µM
  Plasma CITRULLINE: 25 µM
  Plasma ARGININE: 97 µM
  Plasma TRYPTOPHAN: 40 µM
  Plasma TYROSINE: 46 µM
  Plasma PHENYLALANINE: 84 µM
  Plasma ORNITHINE: 95 µM
  Plasma ISOLEUCINE: 128 uM/L
  Plasma LEUCINE: 220 uM/L
  Plasma VALINE: 269 uM/L
  Plasma ALANINE: 277 uM/L
  Plasma GLUTAMINE: 519 uM/L
  Plasma Total Amino Acids: 3296 µM
[1]; FIG. 5, Triheptanoin diet only
  time to restoration of Alanine and Glutamine deficits: ≤ 13 h
[1]; after resumption of the diet via gastrostomy
  time for amino acid levels to return to (or above) normal ranges: ≤ 24 h
[1]; [4]
  increase of plasma Glutamine: ~2 fold
  increase of plasma branched chain amino acids (BCAAs): ~2 fold
[1]; thirteen hours after initiating the C7 diet by nasogastric tube
  increase of plasma alanine level: 4 fold
[2]; 0.5 gm/kg via nasogastric tube, fasted 12 hours, three horses
  time of peak of C7 acyl carnitine: 90 min
[2]; in vivo
  time of peak serum concentration of C3 acylcarnitine: 120 min
  time of peak serum concentration of C5 acylcarnitine: 120 min
[3]; first horse, 8 year old mare, triheptanoin in feed pellets
  time to become asymptomatic: ≤ 30 days
[3]; second horse, 4 month foal
  blood enzyme levels related to muscle disease (including serum creatine phosphokinase): had normalized
  time to running and playing without muscle pain: ≤ 24 h
[3]; second horse, dose back to 2 grams/Kg body weight
  symptoms after adjustment of the dose for weight gain: eliminated all symptoms
[3]; third horse, 8 year old mare, 1.0 gm/Kg/day, one week of diet treatment
  clinical status: asymptomatic with normal blood chemistry levels
